# Results published in ChEMBL document CHEMBL1201862, “PubChem BioAssay data set” (2004).
#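 The compound was tested at five concentrations on cells cultured in 96-well plates, with a 48-hour exposure period. The concentration for 50% growth inhibition is given as GI50.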 The source made the active and inactive calls. No stated cut-off is given here; in the data, active = GI50 up to about 1.1 µM and inactive = higher.
# Experiments:
# Assay in all cases: NCI tumour cell line growth inhibition, 48 h
# [1] = test system: MDA-MB-231
# [2] = test system: SK-MEL-28
# [3] = test system: K562
# [4] = test system: CAKI-1
# [5] = test system: MCF7
# [6] = test system: OVCAR-3
# [7] = test system: A549
# [8] = test system: DU-145
# [9] = test system: HT-29
# [10] = test system: SF-295
# [11] = test system: IGROV-1
# [12] = test system: SK-OV-3
# [13] = test system: KM12
# [14] = test system: T47D
# [15] = test system: Malme-3M
# [16] = test system: SF-268
# [17] = test system: HCT-116
# [18] = test system: BT-549
# [19] = test system: COLO 205
# [20] = test system: HCT-15
# [21] = test system: NCI-H522
# [22] = test system: OVCAR-5
# [23] = test system: SK-MEL-2
# [24] = test system: OVCAR-4
# [25] = test system: PC-3
# [26] = test system: UACC-257
# [27] = test system: MDA-N
# [28] = test system: NCI-H226
# [29] = test system: HCC 2998
# [30] = test system: NCI-H460
# [31] = test system: SNB-75
# [32] = test system: ACHN
# [33] = test system: SR
# [34] = test system: SNB-19
# [35] = test system: NCI/ADR-RES
# [36] = test system: NCI-H23
# [37] = test system: MOLT-4
# [38] = test system: SN12C
# [39] = test system: UACC-62
# [40] = test system: HOP-62
# [41] = test system: RPMI-8226
# [42] = test system: UO-31
# [43] = test system: CCRF-CEM
# [44] = test system: RXF 393
# [45] = test system: HOP-92
# [46] = test system: SK-MEL-5
# [47] = test system: HL-60
# [48] = test system: U-251
# [49] = test system: MDA-MB-435
# [50] = test system: Hs-578T
# [51] = test system: OVCAR-8
# [52] = test system: SF-539
# [53] = test system: M14
# [54] = test system: EKVX
# [55] = test system: 786-0
# [56] = test system: TK-10
# [57] = test system: LOX IMVI
# [58] = test system: SW-620
compound,measurement,setting,value
CC(C)(O)C1CC[C@]2(C)CC[C@]3(C)[C@H](CC[C@@H]4[C@@]5(C)CC[C@H](O)C(C)(C)[C@@H]5CC[C@]43C)[C@@H]12 (stereo partly specified),GI50,[1],> 100 µM (inactive)
same,GI50,[2],29.2 µM (inactive)
same,GI50,[3],82.6 µM (inactive)
same,GI50,[4],22.1 µM (inactive)
same,GI50,[5],34.6 µM (inactive)
same,GI50,[6],24.1 µM (inactive)
same,GI50,[7],30.1 µM (inactive)
same,GI50,[8],23.2 µM (inactive)
same,GI50,[9],35.8 µM (inactive)
same,GI50,[10],25.4 µM (inactive)
same,GI50,[11],33.3 µM (inactive)
same,GI50,[12],23.1 µM (inactive)
same,GI50,[13],34.4 µM (inactive)
same,GI50,[14],23.1 µM (inactive)
same,GI50,[15],28.6 µM (inactive)
same,GI50,[16],31 µM (inactive)
same,GI50,[17],21 µM (inactive)
same,GI50,[18],29.2 µM (inactive)
same,GI50,[19],29.7 µM (inactive)
same,GI50,[20],35 µM
same,GI50,[21],29.1 µM (inactive)
same,GI50,[22],32.5 µM (inactive)
same,GI50,[23],20.5 µM (inactive)
same,GI50,[24],27.2 µM (inactive)
same,GI50,[25],30.3 µM (inactive)
same,GI50,[26],15.4 µM (inactive)
same,GI50,[27],47.8 µM (inactive)
same,GI50,[28],44.4 µM (inactive)
same,GI50,[29],26.8 µM (inactive)
same,GI50,[30],34.8 µM (inactive)
same,GI50,[31],21.6 µM (inactive)
same,GI50,[32],22.1 µM (inactive)
same,GI50,[33],30.5 µM (inactive)
same,GI50,[34],68.7 µM (inactive)
same,GI50,[35],29.4 µM (inactive)
same,GI50,[36],35.2 µM (inactive)
same,GI50,[37],73.1 µM (inactive)
same,GI50,[38],81.3 µM (inactive)
same,GI50,[39],39 µM (inactive)
same,GI50,[40],25.8 µM (inactive)
same,GI50,[41],34.3 µM (inactive)
same,GI50,[42],58.2 µM (inactive)
same,GI50,[43],74.1 µM (inactive)
same,GI50,[44],33.6 µM (inactive)
same,GI50,[45],14.5 µM (inactive)
same,GI50,[46],26 µM (inactive)
same,GI50,[47],> 100 µM (inactive)
same,GI50,[48],35.6 µM (inactive)
same,GI50,[49],34.1 µM (inactive)
same,GI50,[50],22.7 µM (inactive)
same,GI50,[51],32.7 µM (inactive)
same,GI50,[52],23.4 µM (inactive)
same,GI50,[53],36.3 µM (inactive)
same,GI50,[54],23.2 µM (inactive)
same,GI50,[55],25.2 µM (inactive)
same,GI50,[56],27.5 µM (inactive)
COc1ccc(C(=O)N2CCN(c3ccc4c(c3)OCC(=O)N4)CC2)cc1OC,GI50,[1],> 100 µM (inactive)
same,GI50,[2],> 100 µM (inactive)
same,GI50,[5],> 100 µM (inactive)
same,GI50,[6],> 100 µM (inactive)
same,GI50,[7],> 100 µM (inactive)
same,GI50,[8],> 100 µM (inactive)
same,GI50,[9],> 100 µM (inactive)
same,GI50,[10],> 100 µM (inactive)
same,GI50,[11],> 100 µM (inactive)
same,GI50,[12],> 100 µM (inactive)
same,GI50,[13],> 100 µM (inactive)
same,GI50,[14],54.3 µM (inactive)
same,GI50,[15],> 100 µM (inactive)
same,GI50,[16],> 100 µM (inactive)
same,GI50,[17],> 100 µM (inactive)
same,GI50,[18],> 100 µM (inactive)
same,GI50,[19],> 100 µM (inactive)
same,GI50,[20],> 100 µM
same,GI50,[21],71.1 µM (inactive)
same,GI50,[22],52 µM (inactive)
same,GI50,[23],> 100 µM (inactive)
same,GI50,[24],38.1 µM (inactive)
same,GI50,[25],> 100 µM (inactive)
same,GI50,[26],> 100 µM (inactive)
same,GI50,[27],> 100 µM (inactive)
same,GI50,[28],> 100 µM (inactive)
same,GI50,[29],> 100 µM (inactive)
same,GI50,[30],> 100 µM (inactive)
same,GI50,[31],> 100 µM (inactive)
same,GI50,[32],> 100 µM (inactive)
same,GI50,[33],> 100 µM (inactive)
same,GI50,[34],> 100 µM (inactive)
same,GI50,[35],> 100 µM (inactive)
same,GI50,[36],> 100 µM (inactive)
same,GI50,[37],> 100 µM (inactive)
same,GI50,[38],> 100 µM (inactive)
same,GI50,[39],> 100 µM (inactive)
same,GI50,[40],> 100 µM (inactive)
same,GI50,[41],> 100 µM (inactive)
same,GI50,[42],> 100 µM (inactive)
same,GI50,[43],> 100 µM (inactive)
same,GI50,[45],> 100 µM (inactive)
same,GI50,[46],> 100 µM (inactive)
same,GI50,[47],> 100 µM (inactive)
same,GI50,[48],> 100 µM (inactive)
same,GI50,[57],> 100 µM (inactive)
same,GI50,[49],> 100 µM (inactive)
same,GI50,[58],> 100 µM (inactive)
same,GI50,[50],> 100 µM (inactive)
same,GI50,[51],> 100 µM (inactive)
same,GI50,[52],> 100 µM (inactive)
same,GI50,[53],> 100 µM (inactive)
same,GI50,[54],> 100 µM (inactive)
same,GI50,[55],> 100 µM (inactive)
same,GI50,[56],> 100 µM (inactive)
